From ChEMBL document CHEMBL1137946, “Synthesis and biological evaluation of (-)-laulimalide analogues” (Bioorg Med Chem Lett, 2004) come the findings set out here.

Broadly, the IC50 is the point on the concentration scale where inhibition reaches its midpoint. A high value points to lower potency.

The test system of one assay is HT-29. The assay is described as follows: In vitro growth inhibitory activity against HT-29 human colon cancer cell line. The class given is functional, cell-based.
In another assay the test system is MDA-MB-435. The assay is described as follows: In vitro growth inhibitory activity against MDA-MB-435 human breast cancer cell line. The class given is functional, cell-based.

A value given as a limit tells only on which side of the number the result lay.

`C=C1C[C@H](C)C[C@@H]2CC=C[C@@H](C/C=C/C(=O)O[C@H]([C@@H](O)/C=C/[C@@H]3CC(C)=CCO3)C/C=C/[C@@H](O)C1)O2`: the half-inhibitory concentration (IC50) in the assay on HT-29 is 8500 nM; in the assay on MDA-MB-435 it was 2760 nM.
For `C=C1C[C@H](C)C[C@@H]2CC=C[C@@H](CCCC(=O)O[C@H]([C@H](/C=C/[C@@H]3CC(C)=CCO3)OC)C[C@@H]3O[C@H]3[C@@H](O)C1)O2`, the IC50 in the assay on HT-29 and with MDA-MB-435 was greater than 1000 nM each time.
As to `C=C1C[C@H](C)C[C@@H]2CC=C[C@@H](C/C=C\C(=O)O[C@H]([C@@H](O)/C=C/[C@@H]3CC(C)=CCO3)C[C@@H]3O[C@H]3[C@@H](OC(C)=O)C1)O2`, the IC50 in the assay on MDA-MB-435 amounted to 23 nM.
`C=C1C[C@H](C)C[C@@H]2CC=C[C@@H](C/C=C\C(=O)O[C@H]([C@H](/C=C/[C@@H]3CC(C)=CCO3)OC(C)=O)C[C@@H]3O[C@H]3[C@@H](O)C1)O2`: half-maximal inhibition in the assay with MDA-MB-435 (IC50) was put at 91 nM.
With `C=C1C[C@H](C)C[C@@H]2CC=C[C@@H](C/C=C\C(=O)O[C@H]([C@@H](O)/C=C/[C@@H]3CC(C)=CCO3)C/C=C/[C@@H](O)C1)O2`, the IC50 in the assay on HT-29 stood at 960 nM; with MDA-MB-435, 289 nM.
In turn, `C=C1C[C@H](C)C[C@@H]2CC=C[C@@H](C/C=C\C(=O)O[C@H]([C@@H](O)/C=C/[C@@H]3CC(C)=CCO3)C[C@@H]3O[C@H]3[C@@H](OC)C1)O2` gave an IC50 in the assay on MDA-MB-435 greater than 1000 nM.
The same measure, in the same setting: the value for `C=C1C[C@H](C)C[C@@H]2CC=C[C@@H](C/C=C\C(=O)O[C@H]([C@@H](O)/C=C/[C@@H]3CC(C)=CCO3)C[C@H]3O[C@@H]3[C@H](OC(=O)c3ccc([N+](=O)[O-])cc3)C1)O2` was greater than 1000 nM; that for `C=C1C[C@H](C)C[C@@H]2CC=C[C@@H](C/C=C\C(=O)O[C@H]([C@H](/C=C/[C@@H]3CC(C)=CCO3)O[Si](C)(C)C(C)(C)C)C[C@@H]3O[C@H]3[C@@H](O)C1)O2` was greater than 1000 nM.
For the compound `C=C1C[C@H](C)C[C@@H]2CC=C[C@@H](C/C=C\C(=O)O[C@H]([C@@H](O)/C=C/[C@@H]3CC(C)=CCO3)C/C=C/[C@H](O)C1)O2`, the figures for the half-inhibitory concentration (IC50) with HT-29 and in the assay with MDA-MB-435 were 2700 nM and 790 nM, respectively.
The compound `C=C1C[C@H](C)C[C@@H]2CC=C[C@@H](C/C=C\C(=O)O[C@H]([C@H](/C=C/[C@@H]3CC(C)=CCO3)OC(C)=O)C[C@@H]3O[C@H]3[C@@H](OC(C)=O)C1)O2` had an IC50 in the assay on MDA-MB-435 of 289 nM.
In the case of `C=C1CC(=N\OC)/C=C/C[C@@H]([C@@H](O)/C=C/[C@@H]2CC(C)=CCO2)OC(=O)/C=C\C[C@@H]2C=CC[C@@H](C[C@@H](C)C1)O2`, the IC50 in the assay with MDA-MB-435 was greater than 1000 nM.
As to `C=C1C[C@H](C)C[C@@H]2CC=C[C@@H](C/C=C\C(=O)O[C@H]([C@@H](O)/C=C/[C@@H]3CC(C)=CCO3)C[C@@H]3O[C@H]3[C@H](OC(=O)OC)C1)O2`, in the assay on MDA-MB-435, the IC50 came out at 422 nM.
For `C=C1C[C@H](C)C[C@@H]2CC=C[C@@H](CC#CC(=O)O[C@H]([C@H](/C=C/[C@@H]3CC(C)=CCO3)OC)C[C@@H]3O[C@H]3[C@@H](O)C1)O2`, the half-maximal inhibitory concentration (IC50) in the assay on HT-29 and in the assay with MDA-MB-435 was greater than 1000 nM throughout.
Take `C=C1C[C@H](C)C[C@@H]2CC=C[C@@H](C/C=C\C(=O)O[C@H]([C@@H](O)/C=C/[C@@H]3CC(C)=CCO3)C[C@@H]3O[C@H]3[C@H](OC(=O)c3ccc([N+](=O)[O-])cc3)C1)O2`: in the assay on MDA-MB-435, the IC50 worked out at 37 nM.
Compound `C=C1C[C@H](C)C[C@@H]2CC=C[C@@H](C/C=C\C(=O)O[C@H]([C@@H](O)/C=C/[C@@H]3CC(C)=CCO3)C[C@@H]3O[C@H]3[C@H](OC(=O)N(C)C)C1)O2` gave an IC50 with MDA-MB-435 of 601 nM.
In the assay on MDA-MB-435, `C=C1C[C@H](C)C[C@@H]2CC=C[C@@H](C/C=C\C(=O)O[C@H]([C@@H](O)/C=C/[C@@H]3CC(C)=CCO3)C[C@H]3O[C@@H]3[C@H](O)C1)O2` showed an IC50 of 176 nM.
In the case of `C=C1CC(=O)/C=C/C[C@@H]([C@@H](O)/C=C/[C@@H]2CC(C)=CCO2)OC(=O)/C=C\C[C@@H]2C=CC[C@@H](C[C@@H](C)C1)O2`, the IC50 in the assay with MDA-MB-435 was greater than 1000 nM.
Turning to `C=C1C[C@H](C)C[C@@H]2CC=C[C@@H](C/C=C\C(=O)O[C@H]([C@H](/C=C/[C@@H]3CC(C)=CCO3)OC)C[C@@H]3O[C@H]3[C@@H](O)C1)O2`, the values for the half-inhibitory concentration (IC50) in the assay on HT-29 and in the assay with MDA-MB-435 were 590 nM and 242 nM, respectively.
The corresponding values for `C=C1C[C@H](C)C[C@@H]2CC=C[C@@H](C/C=C/C(=O)O[C@H]([C@@H](O)/C=C/[C@@H]3CC(C)=CCO3)C/C=C/[C@H](O)C1)O2` are 9600 nM and 4300 nM.
For `C=C1C[C@H](C)C[C@@H]2CC=C[C@@H](C/C=C\C(=O)O[C@H]([C@@H](O)/C=C/[C@@H]3CC(C)=CCO3)C[C@@H]3O[C@H]3[C@@H](O)C1)O2` [FIJIANOLIDE B], the figures for the IC50 in the assay on HT-29 and with MDA-MB-435 were 6.9 nM and 2.3 nM, respectively.
